This passage reports IC50 results from article PMC13100289 (The Journal of Biological Chemistry, 2026).

This test deals with T1, Neutral endopeptidase (neprilysin) (Homo sapiens, UniProt P08473).
T1 construct: purchased; host or cells: CHO cells
As to the kind of experiment: Metalloprotease selectivity panel (Eurofins Panlabs): neprilysin. Format: biochemical. Conditions: assay validation, read-out: IC50 of reference inhibitor. The source says: Supplementary Table S1. […] Reference compounds were used to validate the assay for inhibition.

T1 sequence (P08473 whole entry): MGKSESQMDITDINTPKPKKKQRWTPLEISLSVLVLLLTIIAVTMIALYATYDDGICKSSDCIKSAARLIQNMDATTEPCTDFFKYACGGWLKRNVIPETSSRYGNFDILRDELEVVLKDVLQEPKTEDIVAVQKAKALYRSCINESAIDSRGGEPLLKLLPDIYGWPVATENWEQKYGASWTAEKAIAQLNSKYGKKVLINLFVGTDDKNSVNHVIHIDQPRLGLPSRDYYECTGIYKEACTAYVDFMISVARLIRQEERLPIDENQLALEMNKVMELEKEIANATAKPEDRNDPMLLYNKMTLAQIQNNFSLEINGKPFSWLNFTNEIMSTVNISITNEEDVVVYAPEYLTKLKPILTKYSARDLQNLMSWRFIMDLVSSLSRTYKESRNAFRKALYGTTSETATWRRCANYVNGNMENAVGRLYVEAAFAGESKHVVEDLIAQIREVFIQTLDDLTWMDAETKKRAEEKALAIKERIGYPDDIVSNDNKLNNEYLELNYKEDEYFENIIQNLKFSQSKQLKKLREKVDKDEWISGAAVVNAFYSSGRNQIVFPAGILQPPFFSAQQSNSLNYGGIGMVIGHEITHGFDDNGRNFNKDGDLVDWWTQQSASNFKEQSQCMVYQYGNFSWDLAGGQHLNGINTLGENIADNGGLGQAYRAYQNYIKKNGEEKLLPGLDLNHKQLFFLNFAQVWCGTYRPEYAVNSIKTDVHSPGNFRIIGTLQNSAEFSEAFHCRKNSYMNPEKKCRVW

`CC(C)C[C@H](NP(=O)(O)O[C@@H]1O[C@@H](C)[C@H](O)[C@@H](O)[C@H]1O)C(=O)N[C@@H](Cc1c[nH]c2ccccc12)C(=O)O` [Phosphoramidon]: the IC50 (as a rule, the point on the concentration scale where inhibition reaches its midpoint) turned out to be 1.99 nM.
